The series has as its system Homo sapiens. As to the kind of experiment: Evaluation of pharmacokinetic parameters for Rifampin in serum following single oral administration of 10 mg/kg Rifampin to pediatric patients. More on the design: dose 600 mg, dose 10 mg/kg, route oral. The settings on record: in vivo, dosed compound id 35, dosed compound name RIFAMPICIN, gender male and female, regimen Single dose, tissue Serum. It is filed as ADME, organism-based.

Among the data in ChEMBL document CHEMBL3832057 are Tmax values, retold here.

The term Tmax denotes the time at which the peak concentration occurs.

Regarding `CO[C@H]1/C=C/O[C@@]2(C)Oc3c(C)c(O)c4c(O)c(c(/C=N/N5CCN(C)CC5)c(O)c4c3C2=O)NC(=O)/C(C)=C\C=C\[C@H](C)[C@H](O)[C@@H](C)[C@@H](O)[C@@H](C)[C@H](OC(C)=O)[C@@H]1C` [RIFAMPIN], the Tmax came out at 1 h.
